Here are results for one substance from US9433573B2, “Microfabricated nanopore device for sustained release of therapeutic agent” (Delpor, Inc., priority 2001, dated 2016).

The nature of data set [1]: In vitro release of 125I-lysozyme from nanopore membrane implants. From the text: (§1) Lysozyme, an enzyme with a molecular weight intermediate between that of glucose and albumin (MW 12,000 Daltons) was used to measure diffusion kinetics through nanopore membranes both in vitro and in vivo. Radiolabeled (^125-I) lysozyme was obtained from ICN Biochemicals. Unlabeled lysozyme was obtained from Sigma Chemical Corp. Radiolabeled lysozyme was admixed with unlabeled lysozyme and loaded into implants as described above for albumin. In vitro release rates for three size membranes are plotted in FIG. 8. Lysozyme release rates are zero-order for membranes pore sizes of 13 nm and 49 nm.

Details of data set [2]: species or system rats. To be noted: rat, in vivo, sc, 80 ug.
Text: as §1
Blood levels of lysozyme in groups of three rats given either a single subcutaneous bolus of 80 μg or after implantation of a nanopore implant device designed to release lysozyme at a rate of 17 μg/day are shown in FIG. 9.

lysozyme: in data set [1] (membrane pore sizes of 13 nm and 49 nm, in vitro), the “lysozyme release rates (kinetics)” value is on record as “zero-order”. The “flux of lysozyme versus initial concentration” value in data set [1] (pore size of 13 nm or less, in vitro (data not shown)) is given as “independent of initial concentration”. Moreover, the “apparent half-life in blood stream” value in data set [2] is given as “less than several days”.
